Patent US20120029187A1, “HALOALKYLSULFONANILIDE DERIVATIVE” (Nissan Chemical Industries, Ltd., priority 2009, published 2012)

Experiments:
Type in all cases: in vivo
[1] = tested on: common chickweed; assay: Test Example 3: herbicidal effects in soil treatment; conditions: dose 3.2 g/a
Procedure, shortened: (§1)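 Seeds were sown in sterilized diluvial soil and covered with about 1.5 cm of soil. Compounds, formulated as emulsifiable concentrates and diluted with water, were sprayed evenly over the soil surface at set doses in g/a. Herbicidal effect was scored on a rating scale three weeks later.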

[2] = tested on: beadstraw; assay: as above; conditions: dose 3.2 g/a
Procedure, shortened: as §1

[3] = tested on: wild oat; assay: as above; conditions: dose 3.2 g/a
Procedure, shortened: as §1

[4] = tested on: redroot pigweed; assay: as above; conditions: dose 3.2 g/a
Procedure, shortened: as §1

[5] = tested on: large crabgrass; assay: as above; conditions: dose 3.2 g/a
Procedure, shortened: as §1

[6] = tested on: Italian ryegrass; assay: as above; conditions: dose 3.2 g/a
Procedure, shortened: as §1

[7] = tested on: water foxtail; assay: as above; conditions: dose 3.2 g/a
Procedure, shortened: as §1

[8] = tested on: common ragweed; assay: as above; conditions: dose 3.2 g/a
Procedure, shortened: as §1

[9] = tested on: common lambsquater; assay: as above; conditions: dose 3.2 g/a
Procedure, shortened: as §1

[10] = tested on: giant foxtail; assay: as above; conditions: dose 3.2 g/a
Procedure, shortened: as §1

[11] = tested on: posumbu knotweed; assay: as above; conditions: dose 3.2 g/a
Procedure, shortened: as §1

[12] = tested on: barnyardgrass; assay: as above; conditions: dose 3.2 g/a
Procedure, shortened: as §1

[13] = tested on: common chickweed; assay: Test Example 4: herbicidal effect in foliage treatment; conditions: dose 3.2 g/a
Procedure, shortened: (§2)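 Foliar spray, post-emergence: 14-day-old greenhouse plants (25–30° C, diluvial soil) treated with water-diluted EC at set g/a doses; visual herbicidal score at 3 wk post-application.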

[14] = tested on: beadstraw; assay: as above; conditions: dose 3.2 g/a
Procedure, shortened: as §2

[15] = tested on: wild oat; assay: as above; conditions: dose 3.2 g/a
Procedure, shortened: as §2

[16] = tested on: redroot pigweed; assay: as above; conditions: dose 3.2 g/a
Procedure, shortened: as §2

[17] = tested on: velvetleaf; assay: as above; conditions: dose 3.2 g/a
Procedure, shortened: as §2

[18] = tested on: large crabgrass; assay: as above; conditions: dose 3.2 g/a
Procedure, shortened: as §2

[19] = tested on: Italian ryegrass; assay: as above; conditions: dose 3.2 g/a
Procedure, shortened: as §2

[20] = tested on: water foxtail; assay: as above; conditions: dose 3.2 g/a
Procedure, shortened: as §2

[21] = tested on: common ragweed; assay: as above; conditions: dose 3.2 g/a
Procedure, shortened: as §2

[22] = tested on: common lambsquater; assay: as above; conditions: dose 3.2 g/a
Procedure, shortened: as §2

[23] = tested on: giant foxtail; assay: as above; conditions: dose 3.2 g/a
Procedure, shortened: as §2

[24] = tested on: posumbu knotweed; assay: as above; conditions: dose 3.2 g/a
Procedure, shortened: as §2

[25] = tested on: barnyardgrass; assay: as above; conditions: dose 3.2 g/a
Procedure, shortened: as §2

[26] = tested on: transplanted rice; assay: Test Example 1: preemergence treatment under submerged conditions, effect on crop; conditions: dose 2.52 g/a
Procedure, shortened: (§3)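 Flooded-paddy preemergence assay; EC diluted with water, surface-applied at weed seeding; doses g/a; rice transplanted at 2.5 leaves; 0–5 mortality score after 3 weeks.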

[27] = tested on: ducksalad; assay: Test Example 2: herbicidal effects during the vegetation period under submerged conditions; conditions: treatment during the vegetation period under submerged conditions; dose 2.52 g/a
Procedure, shortened: (§4)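 Barnyardgrass, bulrush and ducksalad were co-sown in alluvial soil flooded to 4 cm and grown in a greenhouse at 25 to 30° C. At the 1- or 2-leaf stage, water-diluted emulsifiable concentrates went onto the water surface at set doses (g/a). Herbicidal effect was scored three weeks later on a graded scale.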

[28] = tested on: bulrush; assay: as above; conditions: treatment during the vegetation period under submerged conditions; dose 2.52 g/a
Procedure, shortened: as §4

[29] = tested on: barnyardgrass; assay: as above; conditions: treatment during the vegetation period under submerged conditions; dose 2.52 g/a
Procedure, shortened: as §4

[30] = tested on: ducksalad; assay: Test Example 1: herbicidal effects in preemergence treatment under submerged conditions; conditions: dose 2.52 g/a
Procedure, shortened: as §3

[31] = tested on: bulrush; assay: as above; conditions: dose 2.52 g/a
Procedure, shortened: as §3

[32] = tested on: barnyardgrass; assay: as above; conditions: dose 2.52 g/a
Procedure, shortened: as §3

[33] = tested on: velvetleaf; assay: Test Example 3: herbicidal effects in soil treatment; conditions: dose 3.2 g/a
Procedure, shortened: as §1

[34] = three weeks after the application

CCOC(=O)N(c1ccccc1CN1COC(C(F)(F)F)CC1=O)S(=O)(=O)C(F)(F)F (stereo not shown) [II-15]
N: common chickweed, herbicidal effect (evaluation scale 0-5) [1]: 4 (mortality of at least 70% and less than 90%)
O: beadstraw, herbicidal effect (evaluation scale 0-5) [2]: 0 (mortality of less than 5% (almost ineffective))
F: wild oat, herbicidal effect (evaluation scale 0-5) [3]: 0 (mortality of less than 5% (almost ineffective))
K: redroot pigweed, herbicidal effect (evaluation scale 0-5) [4]: 4 (mortality of at least 70% and less than 90%)
D: large crabgrass, herbicidal effect (evaluation scale 0-5) [5]: 5 (mortality of 90% or above (nearly complete death))
H: Italian ryegrass, herbicidal effect (evaluation scale 0-5) [6]: 4 (mortality of at least 70% and less than 90%)
G: water foxtail, herbicidal effect (evaluation scale 0-5) [7]: 5 (mortality of 90% or above (nearly complete death))
J: common ragweed, herbicidal effect (evaluation scale 0-5) [8]: 4 (mortality of at least 70% and less than 90%)
L: common lambsquater, herbicidal effect (evaluation scale 0-5) [9]: 4 (mortality of at least 70% and less than 90%)
E: giant foxtail, herbicidal effect (evaluation scale 0-5) [10]: 0 (mortality of less than 5% (almost ineffective))
M: posumbu knotweed, herbicidal effect (evaluation scale 0-5) [11]: 0 (mortality of less than 5% (almost ineffective))
A: barnyardgrass, herbicidal effect (evaluation scale 0-5) [12]: 4 (mortality of at least 70% and less than 90%)
N: common chickweed, herbicidal effect ([13]; three weeks after application): 4 (mortality of at least 70% and less than 90%)
O: beadstraw, herbicidal effect ([14]; three weeks after application): 4 (mortality of at least 70% and less than 90%)
F: wild oat, herbicidal effect ([15]; three weeks after application): 0 (mortality of less than 5% (almost ineffective))
K: redroot pigweed, herbicidal effect ([16]; three weeks after application): 0 (mortality of less than 5% (almost ineffective))
I: velvetleaf, herbicidal effect ([17]; three weeks after application): 5 (mortality of 90% or above (nearly complete death))
D: large crabgrass, herbicidal effect ([18]; three weeks after application): 4 (mortality of at least 70% and less than 90%)
H: Italian ryegrass, herbicidal effect ([19]; three weeks after application): 1 (mortality of at least 5% and less than 20%)
G: water foxtail, herbicidal effect ([20]; three weeks after application): 5 (mortality of 90% or above (nearly complete death))
J: common ragweed, herbicidal effect ([21]; three weeks after application): 3 (mortality of at least 40% and less than 70%)
L: common lambsquater, herbicidal effect ([22]; three weeks after application): 4 (mortality of at least 70% and less than 90%)
E: giant foxtail, herbicidal effect ([23]; three weeks after application): 3 (mortality of at least 40% and less than 70%)
M: posumbu knotweed, herbicidal effect ([24]; three weeks after application): 3 (mortality of at least 40% and less than 70%)
A: barnyardgrass, herbicidal effect ([25]; three weeks after application): 4 (mortality of at least 70% and less than 90%)
a: transplanted rice, effect on crop (evaluation scale 0-5) [26]: 0 (mortality of less than 5% (almost ineffective))
C: ducksalad, herbicidal effect (evaluation scale 0-5) [27]: 5 (mortality of 90% or above (nearly complete death))
B: bulrush, herbicidal effect (evaluation scale 0-5) [28]: 5 (mortality of 90% or above (nearly complete death))
A: barnyardgrass, herbicidal effect (evaluation scale 0-5) [29]: 5 (mortality of 90% or above (nearly complete death))
C: ducksalad, herbicidal effect (evaluation scale 0-5) [30]: 5 (mortality of 90% or above (nearly complete death))
B: bulrush, herbicidal effect (evaluation scale 0-5) [31]: 5 (mortality of 90% or above (nearly complete death))
A: barnyardgrass, herbicidal effect (evaluation scale 0-5) [32]: 5 (mortality of 90% or above (nearly complete death))

CCOC(=O)N(c1ccccc1CN1CSCCC1=O)S(=O)(=O)C(F)(F)F [II-79]
herbicidal effect, N: common chickweed [1]: 4 (mortality of at least 70% and less than 90%)
herbicidal effect, O: beadstraw [2]: 0 (mortality of less than 5% (almost ineffective))
herbicidal effect, F: wild oat [3]: 0 (mortality of less than 5% (almost ineffective))
herbicidal effect, K: redroot pigweed [4]: 2 (mortality of at least 20% and less than 40%)
herbicidal effect, I: velvetleaf [33]: 5 (mortality of 90% or above (nearly complete death))
herbicidal effect, D: large crabgrass [5]: 5 (mortality of 90% or above (nearly complete death))
herbicidal effect, H: Italian ryegrass [6]: 3 (mortality of at least 40% and less than 70%)
herbicidal effect, G: water foxtail [7]: 5 (mortality of 90% or above (nearly complete death))
herbicidal effect, J: common ragweed [8]: 4 (mortality of at least 70% and less than 90%)
herbicidal effect, L: common lambsquater [9]: 3 (mortality of at least 40% and less than 70%)
herbicidal effect, E: giant foxtail [10]: 5 (mortality of 90% or above (nearly complete death))
herbicidal effect, A: barnyardgrass [12]: 5 (mortality of 90% or above (nearly complete death))
N: common chickweed, herbicidal effect [13, 34]: 4 (mortality of at least 70% and less than 90%)
O: beadstraw, herbicidal effect [14, 34]: 4 (mortality of at least 70% and less than 90%)
F: wild oat, herbicidal effect [15, 34]: 0 (mortality of less than 5% (almost ineffective))
K: redroot pigweed, herbicidal effect [16, 34]: 1 (mortality of at least 5% and less than 20%)
I: velvetleaf, herbicidal effect [17, 34]: 4 (mortality of at least 70% and less than 90%)
D: large crabgrass, herbicidal effect [18, 34]: 4 (mortality of at least 70% and less than 90%)
H: Italian ryegrass, herbicidal effect [19, 34]: 3 (mortality of at least 40% and less than 70%)
G: water foxtail, herbicidal effect [20, 34]: 5 (mortality of 90% or above (nearly complete death))
J: common ragweed, herbicidal effect [21, 34]: 4 (mortality of at least 70% and less than 90%)
L: common lambsquater, herbicidal effect [22, 34]: 3 (mortality of at least 40% and less than 70%)
E: giant foxtail, herbicidal effect [23, 34]: 4 (mortality of at least 70% and less than 90%)
M: posumbu knotweed, herbicidal effect [24, 34]: 4 (mortality of at least 70% and less than 90%)
A: barnyardgrass, herbicidal effect [25, 34]: 5 (mortality of 90% or above (nearly complete death))
a: transplanted rice, effect on crop (evaluation scale 0-5) [26]: 0 (mortality of less than 5% (almost ineffective))
C: ducksalad, herbicidal effect (evaluation scale 0-5) [27]: 5 (mortality of 90% or above (nearly complete death))
B: bulrush, herbicidal effect (evaluation scale 0-5) [28]: 5 (mortality of 90% or above (nearly complete death))
A: barnyardgrass, herbicidal effect (evaluation scale 0-5) [29]: 5 (mortality of 90% or above (nearly complete death))
C: ducksalad, herbicidal effect (evaluation scale 0-5) [30]: 5 (mortality of 90% or above (nearly complete death))
B: bulrush, herbicidal effect (evaluation scale 0-5) [31]: 5 (mortality of 90% or above (nearly complete death))
A: barnyardgrass, herbicidal effect (evaluation scale 0-5) [32]: 5 (mortality of 90% or above (nearly complete death))
